Biological target: CDK2 (human) (UniProt P24941)
Assay: Cell-Based Assay

IC50 (a549) [µM] | IC50 (ht-29) [µM] | IC50 (saos-2) [µM] | IC50 (hela) [µM] | IC50 (hs-27) [µM] | IC50 (imr90) [µM] | IC50 (mcf-7) [µM] | IC50 (w138) [µM] | SMILES
13.8 | 5.09 | 14.2 |  |  |  |  |  | Cc1[nH]c(CN2CCN(C)CC2)c(C)c1-c1ccnc(Nc2ccc(F)cc2)n1
1.49 | 0.28 | 2.23 |  |  |  |  |  | Cc1ccc(Nc2nccc(-c3c(C)[nH]c(C#N)c3C)n2)cc1F
0.51 | 0.11 | 0.75 | 0.09 | 35.1 | 37.3 | 0.45 | 21.3 | Cc1[nH]c(C#N)c(C)c1-c1ccnc(Nc2ccc(I)cc2)n1
2.76 | 3.2 | 0.7 |  |  |  |  |  | Cc1[nH]c(CN(C)C)c(C)c1-c1ccnc(Nc2ccc(F)cc2)n1
 |  | 0.9 |  |  |  |  |  | Cc1[nH]c(C#N)c(C)c1-c1ccnc(Nc2cccc(O)c2)n1
3.05 | 0.61 | 2.65 |  |  |  |  |  | Cc1[nH]c([N+](=O)[O-])c(C)c1-c1ccnc(Nc2ccc(N(C)C)cc2)n1
3.6 | 0.72 | 3.12 |  |  |  |  |  | Cc1ccc(Nc2nccc(-c3c(C)[nH]c(C#N)c3C)n2)cc1I
4.39 |  |  |  |  |  |  |  | Cc1c[nH]c(C)c1-c1ccnc(Nc2ccc(I)c(Cl)c2)n1
15 | 3.1 | 17 |  |  |  |  |  | Cc1c[nH]c(C)c1-c1ccnc(Nc2ccc(C(F)(F)F)cc2)n1
 |  |  |  | 15.1 | 20.8 |  | 9.6 | Cc1[nH]c(C#N)c(C)c1-c1ccnc(Nc2ccc(F)cc2)n1
1.41 | 0.17 | 1.5 |  |  |  |  |  | Cc1[nH]c(C#N)c(C)c1-c1ccnc(Nc2ccc(N(C)C)cc2)n1
3.64 | 0.95 | 3.4 |  |  |  |  |  | Cc1[nH]c(C#N)c(C)c1-c1ccnc(Nc2ccc(C(F)(F)F)cc2)n1
0.97 | 1.31 | 1.61 |  |  |  |  |  | CCN(CC)Cc1[nH]c(C)c(-c2ccnc(Nc3ccc(F)cc3)n2)c1C
7.56 | 2.92 | 12.4 |  |  |  |  |  | Cc1[nH]c(Br)c(C)c1-c1ccnc(Nc2cccc([N+](=O)[O-])c2)n1
4.37 | 3.27 | 5.88 |  |  |  |  |  | Cc1cc(Nc2nccc(-c3c(C)[nH]c(C#N)c3C)n2)ccc1Cl

Source: the Kinase Knowledgebase extract (Sharma et al. 2016)
